Converted amounts (≈) assume the structure as drawn.
What was measured:
Test in all cases: Agar dilution MIC
[1] = test system: Actinomyces odontolyticus; assay type: cell-based; settings: 10 isolates
Actinomyces israelii = assay type: cell-based; settings: 6 isolates
[2] = test system: Anaerobiospirillum thomasii; assay type: cell-based; settings: 13 isolates
[3] = test system: Anaerobiospirillum succiniciproducens; assay type: cell-based; settings: 3 isolates
Bacteroides gracilis = assay type: cell-based, Bacteroides gracilis (Campylobacter gracilis); settings: Campylobacter gracilis, 11 isolates
Bacteroides tectum = assay type: cell-based; settings: 22 isolates
Bacteroides ureolyticus = assay type: cell-based; settings: Campylobacter ureolyticus, 17 isolates
Bilophila wadsworthia = assay type: cell-based; settings: Bilophila wadsworthia, 16 isolates, agar supplemented with pyruvate
[4] = test system: Clostridium clostridioforme; assay type: cell-based; settings: 11 isolates
Clostridium inocuum = assay type: cell-based, Clostridium innocuum; settings: Clostridium, 11 isolates
Clostridium ramosum = assay type: cell-based; settings: 10 isolates
[5] = test system: Fusobacterium spp group 1; assay type: cell-based; settings: 19 isolates
[6] = test system: Fusobacterium spp. group 2; assay type: cell-based, Fusobacterium mortiferum, necrogenes, ulcerans; settings: Fusobacterium, 12 isolates
Fusobacterium russii = assay type: cell-based
Fusobacterium varium = assay type: cell-based; settings: Fusobacterium varium, 17 isolates
[7] = test system: Peptostreptococcus asaccharolyticus; assay type: cell-based; settings: 11 isolates
[8] = test system: Peptostreptococcus magnus; assay type: cell-based; settings: 13 isolates
[9] = test system: Peptostreptococcus micros; assay type: cell-based; settings: 12 isolates
[10] = test system: Peptostreptococcus prevotii; assay type: cell-based; settings: 9 isolates
[11] = test system: Porphyromonas asaccharolyticus; assay type: cell-based, Porphyromonas asaccharolytica; settings: 11 isolates
Porphyromonas canoris = assay type: cell-based; settings: 10 isolates
Porphyromonas gingivalis = assay type: cell-based; settings: 13 isolates
Porphyromonas macaccae = assay type: cell-based; settings: 13 isolates
Porphyromonas spp. = assay type: cell-based, Porphyromonas cangingivalis, cansulci, circumdentaria, levii; settings: 11 isolates
Prevotella bivia = assay type: cell-based; settings: 21 isolates
[12] = test system: Prevotella buccae-oris group; assay type: cell-based; settings: 22 isolates
[13] = test system: Prevotella heparinolytica; assay type: cell-based; settings: 16 isolates
Prevotella intermedia = assay type: cell-based; settings: 11 isolates
[14] = test system: Prevotella melaninogenica; assay type: cell-based; settings: 12 isolates
[15] = test system: Prevotella denticola/loeschii group; assay type: cell-based; settings: 6 isolates
Veillonella spp. = assay type: cell-based; settings: Veillonella, 24 isolates
[16] = read-out: Minimal Inhibitory Concentration 90% (MIC90)
[17] = read-out: Minimal Inhibitory Concentration 50% (MIC50)
[18] = Porphyromonas, read-out: Minimal Inhibitory Concentration 50% (MIC50)
[19] = Porphyromonas, read-out: Minimal Inhibitory Concentration 90% (MIC90)

SMILES: N[C@@H]1[C@H]2CN(c3nc4c(cc3F)c(=O)c(C(=O)O)cn4-c3ccc(F)cc3F)C[C@@H]12 [Trovafloxacin]
- Minimal Inhibitory Concentration Range [1]: 2 to 4 µg/mL
- MIC90 ([1]; Schaalia odontolytica, read-out: Minimal Inhibitory Concentration 90% (MIC90)): 4 µg/mL (≈ 9.61 µM)
- MIC50 ([1]; Schaalia odontolytica, read-out: Minimal Inhibitory Concentration 50% (MIC50)): 4 µg/mL (≈ 9.61 µM)
- Minimal Inhibitory Concentration Range (Actinomyces israelii): 0.5 to 2 µg/mL
- MIC50 (Actinomyces israelii; Actinomyces israelii, read-out: Minimal Inhibitory Concentration 50% (MIC50)): 1 µg/mL (≈ 2.4 µM)
- Minimal Inhibitory Concentration Range [2]: 0.06 to 0.5 µg/mL
- MIC50 ([2]; Anaerobiospirillum thomasii, read-out: Minimal Inhibitory Concentration 50% (MIC50)): 0.125 µg/mL (≈ 0.3 µM)
- MIC90 ([2]; Anaerobiospirillum thomasii, read-out: Minimal Inhibitory Concentration 90% (MIC90)): 0.25 µg/mL (≈ 0.6 µM)
- Minimal Inhibitory Concentration Range [3]: 0.5 to 2 µg/mL
- MIC50 ([3]; Anaerobiospirillum succiniciproducens, read-out: Minimal Inhibitory Concentration 50% (MIC50)): 1 µg/mL (≈ 2.4 µM)
- MIC90 (Bacteroides gracilis; [16]): 0.5 µg/mL (≈ 1.2 µM)
- MIC50 (Bacteroides gracilis; [17]): 0.03 µg/mL (≈ 0.0721 µM)
- Minimal Inhibitory Concentration Range (Bacteroides tectum): 0.03 to 0.125 µg/mL
- MIC90 (Bacteroides tectum; Bacteroides pyogenes, read-out: Minimal Inhibitory Concentration 90% (MIC90)): 0.125 µg/mL (≈ 0.3 µM)
- MIC50 (Bacteroides tectum; Bacteroides pyogenes, read-out: Minimal Inhibitory Concentration 50% (MIC50)): 0.06 µg/mL (≈ 0.144 µM)
- MIC90 (Bacteroides ureolyticus; [16]): 4 µg/mL (≈ 9.61 µM)
- MIC50 (Bacteroides ureolyticus; [17]): 0.06 µg/mL (≈ 0.144 µM)
- MIC90 (Bilophila wadsworthia; [16]): > 8 µg/mL
- MIC50 (Bilophila wadsworthia; [17]): 0.5 µg/mL (≈ 1.2 µM)
- Minimal Inhibitory Concentration Range [4]: 1 to 8 µg/mL
- MIC90 ([4]; Clostridium, read-out: Minimal Inhibitory Concentration 90% (MIC90)): 4 µg/mL (≈ 9.61 µM)
- MIC50 ([4]; Clostridium, read-out: Minimal Inhibitory Concentration 50% (MIC50)): 4 µg/mL (≈ 9.61 µM)
- MIC90 (Clostridium inocuum; [16]): 8 µg/mL (≈ 19.2 µM)
- MIC50 (Clostridium inocuum; [17]): 0.5 µg/mL (≈ 1.2 µM)
- Minimal Inhibitory Concentration Range (Clostridium ramosum): 0.25 to 8 µg/mL
- MIC50 (Clostridium ramosum; Thomasclavelia ramosa, read-out: Minimal Inhibitory Concentration 50% (MIC50)): 0.5 µg/mL (≈ 1.2 µM)
- MIC90 (Clostridium ramosum; Thomasclavelia ramosa, read-out: Minimal Inhibitory Concentration 90% (MIC90)): 2 µg/mL (≈ 4.8 µM)
- Minimal Inhibitory Concentration Range [5]: 0.25 to 4 µg/mL
- MIC50 ([5]; Fusobacterium, GROUP1, read-out: Minimal Inhibitory Concentration 50% (MIC50)): 0.5 µg/mL (≈ 1.2 µM)
- MIC90 ([5]; Fusobacterium, GROUP1, read-out: Minimal Inhibitory Concentration 90% (MIC90)): 4 µg/mL (≈ 9.61 µM)
- MIC50 [6, 17]: 4 µg/mL (≈ 9.61 µM)
- MIC90 [6, 16]: 4 µg/mL (≈ 9.61 µM)
- Minimal Inhibitory Concentration Range (Fusobacterium russii): 0.5 to 4 µg/mL
- MIC50 (Fusobacterium russii; Fusobacterium russii, read-out: Minimal Inhibitory Concentration 50% (MIC50)): 4 µg/mL (≈ 9.61 µM)
- MIC90 (Fusobacterium russii; Fusobacterium russii, read-out: Minimal Inhibitory Concentration 90% (MIC90)): 4 µg/mL (≈ 9.61 µM)
- MIC50 (Fusobacterium varium; [17]): 4 µg/mL (≈ 9.61 µM)
- MIC90 (Fusobacterium varium; [16]): > 8 µg/mL
- Minimal Inhibitory Concentration Range [7]: 0.5 to 2 µg/mL
- MIC50 ([7]; Peptoniphilus asaccharolyticus, read-out: Minimal Inhibitory Concentration 50% (MIC50)): 1 µg/mL (≈ 2.4 µM)
- MIC90 ([7]; Peptoniphilus asaccharolyticus, read-out: Minimal Inhibitory Concentration 90% (MIC90)): 1 µg/mL (≈ 2.4 µM)
- Minimal Inhibitory Concentration Range [8]: 0.06 to 0.25 µg/mL
- MIC50 ([8]; Finegoldia magna, read-out: Minimal Inhibitory Concentration 50% (MIC50)): 0.125 µg/mL (≈ 0.3 µM)
- MIC90 ([8]; Finegoldia magna, read-out: Minimal Inhibitory Concentration 90% (MIC90)): 0.25 µg/mL (≈ 0.6 µM)
- Minimal Inhibitory Concentration Range [9]: 0.03 to 0.125 µg/mL
- MIC50 ([9]; Parvimonas micra, read-out: Minimal Inhibitory Concentration 50% (MIC50)): 0.06 µg/mL (≈ 0.144 µM)
- MIC90 ([9]; Parvimonas micra, read-out: Minimal Inhibitory Concentration 90% (MIC90)): 0.06 µg/mL (≈ 0.144 µM)
- Minimal Inhibitory Concentration Range [10]: 0.25 to 1 µg/mL
- MIC50 ([10]; Anaerococcus prevotii, read-out: Minimal Inhibitory Concentration 50% (MIC50)): 0.25 µg/mL (≈ 0.6 µM)
- Minimal Inhibitory Concentration Range [11]: 0.03 to 0.25 µg/mL
- MIC50 [11, 18]: 0.25 µg/mL (≈ 0.6 µM)
- MIC90 [11, 19]: 0.25 µg/mL (≈ 0.6 µM)
- Minimal Inhibitory Concentration Range (Porphyromonas canoris): 0.06 to 0.5 µg/mL
- MIC50 (Porphyromonas canoris; Porphyromonas canoris, read-out: Minimal Inhibitory Concentration 50% (MIC50)): 0.25 µg/mL (≈ 0.6 µM)
- MIC90 (Porphyromonas canoris; Porphyromonas canoris, read-out: Minimal Inhibitory Concentration 90% (MIC90)): 0.5 µg/mL (≈ 1.2 µM)
- Minimal Inhibitory Concentration Range (Porphyromonas gingivalis): 0.03 to 0.06 µg/mL
- MIC50 (Porphyromonas gingivalis; Porphyromonas gingivalis, read-out: Minimal Inhibitory Concentration 50% (MIC50)): 0.06 µg/mL (≈ 0.144 µM)
- MIC90 (Porphyromonas gingivalis; Porphyromonas gingivalis, read-out: Minimal Inhibitory Concentration 90% (MIC90)): 0.06 µg/mL (≈ 0.144 µM)
- Minimal Inhibitory Concentration Range (Porphyromonas macaccae): 0.03 to 0.125 µg/mL
- MIC50 (Porphyromonas macaccae; [18]): 0.06 µg/mL (≈ 0.144 µM)
- MIC90 (Porphyromonas macaccae; [19]): 0.125 µg/mL (≈ 0.3 µM)
- Minimal Inhibitory Concentration Range (Porphyromonas spp.): 0.06 to 1 µg/mL
- MIC50 (Porphyromonas spp.; [18]): 0.25 µg/mL (≈ 0.6 µM)
- MIC90 (Porphyromonas spp.; [19]): 1 µg/mL (≈ 2.4 µM)
- Minimal Inhibitory Concentration Range (Prevotella bivia): 1 to 4 µg/mL
- MIC90 (Prevotella bivia; Prevotella bivia, read-out: Minimal Inhibitory Concentration 90% (MIC90)): 2 µg/mL (≈ 4.8 µM)
- MIC50 (Prevotella bivia; Prevotella bivia, read-out: Minimal Inhibitory Concentration 50% (MIC50)): 2 µg/mL (≈ 4.8 µM)
- Minimal Inhibitory Concentration Range [12]: 0.25 to 4 µg/mL
- MIC90 ([12]; Prevotella, read-out: Minimal Inhibitory Concentration 90% (MIC90)): 2 µg/mL (≈ 4.8 µM)
- MIC50 ([12]; Prevotella, read-out: Minimal Inhibitory Concentration 50% (MIC50)): 1 µg/mL (≈ 2.4 µM)
- Minimal Inhibitory Concentration Range [13]: 0.125 to 0.25 µg/mL
- MIC90 ([13]; Prevotella heparinolytica, read-out: Minimal Inhibitory Concentration 90% (MIC90)): 0.25 µg/mL (≈ 0.6 µM)
- MIC50 ([13]; Prevotella heparinolytica, read-out: Minimal Inhibitory Concentration 50% (MIC50)): 0.125 µg/mL (≈ 0.3 µM)
- Minimal Inhibitory Concentration Range (Prevotella intermedia): 0.06 to 1 µg/mL
- MIC90 (Prevotella intermedia; Prevotella intermedia, read-out: Minimal Inhibitory Concentration 90% (MIC90)): 1 µg/mL (≈ 2.4 µM)
- MIC50 (Prevotella intermedia; Prevotella intermedia, read-out: Minimal Inhibitory Concentration 50% (MIC50)): 0.5 µg/mL (≈ 1.2 µM)
- Minimal Inhibitory Concentration Range [14]: 0.06 to 8 µg/mL
- MIC90 ([14]; Prevotella melaninogenica, read-out: Minimal Inhibitory Concentration 90% (MIC90)): 4 µg/mL (≈ 9.61 µM)
- MIC50 ([14]; Prevotella melaninogenica, read-out: Minimal Inhibitory Concentration 50% (MIC50)): 1 µg/mL (≈ 2.4 µM)
- Minimal Inhibitory Concentration Range [15]: 0.06 to 4 µg/mL
- MIC50 ([15]; Prevotella denticola, read-out: Minimal Inhibitory Concentration 50% (MIC50)): 1 µg/mL (≈ 2.4 µM)
- MIC90 (Veillonella spp.; [16]): > 8 µg/mL
- MIC50 (Veillonella spp.; [17]): 0.25 µg/mL (≈ 0.6 µM)
